Measured values taken from patent US9822373B2, “Mutant cells for protein secretion and lignocellulose degradation” (The Regents of the University of California, priority 2011, dated 2017).

Assays:
[1] = test system: cellulase genes (cbh-1, gh5-1, gh6-2); experiment: Quantitative RT-PCR, cellulase gene expression stated for the genes together; assay type: cell-based, Neurospora crassa
Description: Conidia from strains were inoculated at an OD595 equal to 0.05 in 50 ml Vogel's salts (45) with 2% w/v sucrose in a 250 ml Erlenmeyer flask and grown under constant light at 200 rpm for 16 hours. Biomass was then spun at 4200 rpm for 10 minutes and washed in Vogel's salts twice to remove any excess sucrose. […] Cultures were induced for 4 hrs under constant light at 200 rpm. The culture biomass was then harvested by filtration over a Whatman glass microfiber filter (GF/F) on a Buchner funnel and washed with 50 ml Vogel's salts. The biomass was flash frozen in liquid nitrogen and stored at −80° C. Three independent biological duplicates (flasks) were evaluated for each time point.
Total RNA from frozen samples was isolated using Zirconia/Silica beads (0.5 mm diameter; Biospec) and a Mini-Beadbeater-96 (Biospec) with 1 mL TRIzol reagent (Invitrogen) according to the manufacturer's instructions. The total RNA was further purified by digestion with TURBO DNA-free (Ambion) and an RNeasy kit (Qiagen). RNA concentration and integrity was checked by Nanodrop and agarose gel electrophoresis.
Quantitative RT-PCR was performed using the EXPRESS One-Step SYBR GreenER Kit (Invitrogen) and the StepOnePlus Real-Time PCR System (Applied Biosystems). Reactions were performed in triplicate with a total reaction volume of 10 μl including 300 nM each forward and reverse primers and 75 ng template RNA. Data Analysis was performed by the StepOne Software (Applied Biosystems) using the Relative Quantitation/Comparative CT (ΔΔCT) setting. Data was normalized to the endogenous control actin with expression on sucrose as the reference sample.

Neurospora crassa = experiment: Bioreactor cellulase production, total secreted protein in supernatant; assay type: cell-based; conditions: pre-grown 24 hours on 1% sucrose, induction with 0.2%
Description: Cellulase production was carried out in a 3.7 L bioreactor (BioEngineering AG) at an operating volume of 1 L. The bioreactor was equipped with one 48 mm Rushton impeller and four equally spaced baffles to provide adequate mixing. Impeller speed was controlled at 200 rpm for 8 hours to allow spore germination followed by 500 rpm for the remainder of the experiment. The temperature was maintained at 25° C., and medium pH was controlled at 5.5 using 40% phosphoric acid and 1:5 diluted ammonium hydroxide. The dissolved oxygen was maintained at a level greater than 20% of the saturation value of the medium by varying the aeration rate between 0.5 and 3 VVM in response to the dissolved oxygen tension. Minimal growth medium with 1% w/v sucrose as the sole carbon source (unless otherwise noted) was inoculated with 10^9 conidia. After 24 hours initial growth, cellulase production was induced with either cellobiose or Avicel® added to a final concentration of 0.2% w/v. Supernatant samples were collected at timepoint 0, 12 hours before induction, at induction, as well as 4, 8, 12, 24 and 36 hours post induction. Samples were spun at 4000 rpm for 5 minutes to pellet biomass and the supernatant was filtered through a 0.2 μm PES filter before being stored at −20° C. until all samples were collected.
Total secreted proteins were measured using the Bio-Rad Protein Assay kit (Bio-Rad) and visualized by running 15 μl of unconcentrated supernatant on a Criterion 4-14% Tris-HCL polyacrylamide gel and stained with Thermo Scientific GelCode Blue Stain Reagent.

`O=C[C@H](O)[C@@H](O)[C@H](O[C@@H]1O[C@H](CO)[C@@H](O)[C@H](O)[C@H]1O)[C@H](O)CO` [cellobiose] was tested. Which “induction of cbh-1, gh6-2, or gh5-1 expression” value ([1]; individual β-glucosidase deletion strains (Δgh1-1, Δgh3-3 or Δgh3-4), 4 hr induction, 0.2%) did it give?
The value was “did not show a significant induction”.

And the “induction of lignocellulolytic genes” value ([1]; wild-type N. crassa (WT) grown on the substance as sole carbon source)?
Its value is “not induced”.

And the cellulase gene induction ([1]; Δgh1-1Δgh3-3 double mutant, 4 hr induction, 0.2%)?
Its cellulase gene induction is “showed some cellulase gene induction”.

And the “protein in the supernatant” value (Neurospora crassa; WT)?
The value was 0.05 mg/mL.

And the “protein in the supernatant” value (Neurospora crassa; Δ3βG)?
The value was 0.12 mg/mL.

And the “protein in the supernatant” value (Neurospora crassa; Δ3βGΔcre)?
The value was 0.24 mg/mL.
